In patent US5430042A, “Dialkoxy-pyridinyl-benzimidazole derivatives, process for their preparation and their pharmaceutical use” (priority 1990, dated 1995):

Experiments:
gastric acid secretion [1] = assay: Inhibition of Gastric Acid Secretion in the Conscious Dog, iv; format: in vivo, dog (Harrier); details: Canis lupus familiaris, histamine-stimulated, acid output 2 h after dosing, read-out: Inhibition of acid secretion iv administration ED50, Dog
Procedure: (§1) The potency for inhibition of acid secretion is measured in the dog, intravenously (iv) and in the female rat, intravenously (iv).
Harrier dogs of either sex were used. They were equipped with a duodenal fistula for the administration of test compounds or vehicle and a Heidenhain-pouch for the collection of gastric secretions.
Before secretory tests the animals were fasted for about 18 h but water was freely allowed. Gastric acid secretion was stimulated by a 4 h infusion of histamine dihydrochloride (12 ml/h) at a dose producing about 80% of the individual maximal secretory response, and gastric juice collected in consecutive 30-min fractions. Test substance or vehicle was given iv 1 h after starting the histamine infusion, in a volume of 0.5 ml/kg body weight. The acidity of the gastric juice samples were determined by titration to pH 7.0, and the acid output calculated. The acid output in the collection periods after administration of test substance or vehicle were expressed as fractional responses, setting the acid output in the fraction preceding administration to 1.0. Percentage inhibition was calculated from fractional responses elicited by test compound and vehicle. ED50 -values were obtained by graphical interpolation on log dose--response curves, or estimated from single-dose experiments under the assumption of the same slope of the dose-response curve for all test compounds. […]

gastric acid secretion [2] = assay: Inhibition of Gastric Acid Secretion in the Conscious Female Rat, iv; format: in vivo, rat (Sprague-Dawley)
Procedure: as §1
Female rats of the Sprague-Dawley strain are used. They are equipped with cannulated fistulae in the stomach (lumen) for collection of gastric secretions. A fourteen days recovery period after surgery is allowed before testing is commenced.
Before secretory tests, the animals are deprived of food but not water for 20 h. The stomach is repeatedly washed through the gastric cannula, and 6 ml of Ringer-Glucose given s.c. Acid secretion is stimulated with infusion during 3.5 h (1.2 ml/h, s.c.) of pentagastrin and carbachol (20 and 110 nmol/kg h, respectively), during which time gastric secretions are collected in 30-min fractions. Test substances or vehicle are given iv at 90 min after starting the stimulation, in a volume of 1 ml/kg. Gastric juice samples are titrated to pH 7.0 with NaOH, 0.1 mol/L, and acid output is calculated as the product of titrant volume and concentration. Further calculations are based on group mean responses from 4-7 rats. The acid output during the periods after administration of test substances or vehicle are expressed as fractional responses, setting the acid output in the 30-min period preceding administration to 1.0. Percentage inhibition is calculated from the fractional responses elicited by test compound and vehicle. […]

[3] = Chemical Stability at pH 7 in aqueous buffer; format: physicochemical; details: pH 7, 37° C., low concentration, read-out: Chemical stability at pH 7 half-life (t 1/2)
Procedure: The chemical stability of a compound of the invention is followed kinetically at low cencentration at 37° C. in aqueous buffer solution at different pH values. The results in Table 4 show the half life (t 1/2) at pH 7, that is the time period after which half the amount of the original compound remains unchanged.

[4] = test system: uptake of ^125 I in the thyroid gland; assay: Effect on the Accumulation of ^125 I in the Thyroid Gland; format: in vivo, rat (Sprague-Dawley); details: oral gavage, male rat, 4 h after ^125 I
Procedure: The effect of a compound within the invention of the formula I on the uptake of iodine into the thyroid gland is measured as an effect on the accumulation of ^125 I in the thyroid gland.
The accumulation of ^125 I in the thyroid gland was studied in male, Sprague-Dawley rats which were deprived of food for 24 hours before the test. The experimental protocol of Searle, C. E. et al. (Biochem J 1950, 47:77-81) was followed.
Test substances suspended in 0.5% buffered (pH 9) methocel, were administered by oral gavage in a volume of 5 ml/kg body weight. After 1 hour, ^125 I (300 kBqkg, 3 ml/kg) was administered by intraperitoneal injection. Four hours after ^125 I-administration, the animals were killed by CO2 -asphyxiation and bled. The thyroid gland together with a piece of the trachea was dissected out and placed in a small test tube for the assay of radioactivity in a gamma counter (LKB-Wallac model 1282 Compugamma). Percentage inhibition was calculated according to the formula 100 (1-T/P), where T and P is the mean radioactivety of thyroid glands from animals treated with test agent and placebo (buffered methocel), respectively. The statistical significane for a difference between test agent- and placebo-treated animals was assessed with the Mann-Whitney U-test (two-tailed). P<0.05 was accepted as significant.

[5] = Bioavailability in the Male Rat (id vs iv AUC); format: in vivo, rat (Sprague-Dawley); details: blood, 4 umol/kg, intraduodenal vs iv, 4 μmol/kg, read-out: Bioavailability F %, Rat
Procedure: Biovailability is assessed by calculating the quotient between the area under plasma concentration (AUC) curve following intreduodenal (id) administration and intravenous (iv) administration from the rat.
Male adult rats of the Sprague-Dawley strain were used. One day, prior to the experiments, all rats were prepared by cannulation of the left carotid artery under anaesthesia. The rats used for the intravenous experiments, were also cannulated in the jugular vein. (Ref. V. Popovic and P. Popovic, J Appl Physiol 1960;15,727-728). The rats used for the intraduodenal experiments, were also cannulated in the upper part of the duodenum. The cannulas were exteriorized at the nape of the neck. The rats were housed individually after surgery and were deprived of food, but not water, before administration of the test substances. The same dose (4 μmol/kg) were given iv and id as a bolus for about one minute (2 ml/kg).
Blood samples (0.1-0.4 g) were drawn repeatedly from the carotid artery at intervals up to 4 hours after given dose. […]
The area under the blood concentration vs time curve, AUC, was determined by the linear trapezoidal rule and extrapolated to infinity by dividing the last determined blood concentration by the elimination rate constant in the terminal phase.
The systemic bioavailability (F %) following intraduodenal administration was calculated as [formula]

Row | SMILES | ED50 (gastric acid secretion [1]) [µmol/kg] | ED50 (gastric acid secretion [2]; 2 h, iv, pentagastrin and carbachol stimulated, second hour after drug, read-out: Inhibition of acid secretion iv administration ED50, Rat) [µmol/kg] | half-life [3] [h] | Percent inhibition of 400 μmol/kg on the uptake of ^125 I in the thyroid gland [4] [%] | bioavailability [5] [%] | inhibition of acid secretion, Rat (gastric acid secretion [2]; 1 μmol/kg iv) [%]
1 | COc1ccnc(C[S+]([O-])c2nc3cc(C(C)=O)c(C)cc3[nH]2)c1OC (centres unmarked) [Example 4, 5-Acetyl-6-methyl-2-[[(3,4-dimethoxy-2-pyridinyl)methyl]sulfinyl]-1H-benzimidazole] | 0.74 | 0.9 | 7.83 | -7 | > 100 | 
2 | CC(=O)c1cc2nc([S+]([O-])Cc3nccc4c3OCCO4)[nH]c2cc1C (centres unmarked) [Example 2, 5-Acetyl-6-methyl-2-[[(3,4-ethylendioxy-2-pyridinyl)methyl]sulfinyl]-1H-benzimidazole] |  |  |  |  |  | 14
3 | COC(=O)c1cc2nc([S+]([O-])Cc3nccc(OC)c3OC)[nH]c2cc1C (centres unmarked) [Example 3, 5-Carbomethoxy-6-methyl-2-[[(3,4-dimethoxy-2-pyridinyl)methyl]sulfinyl]-1H-benzimidazole] | 0.5 |  | 8 | 0 |  | 
4 | CCOC(=O)c1ccc2[nH]c([S+]([O-])Cc3nccc(OC)c3OC)nc2c1 (centres unmarked) [Example 5, 5-Carbethoxy-2-[[(3,4-dimethoxy-2pyridinyl)methyl]sulfinyl]-1H-benzimidazole] |  |  | 4.5 | -6 |  | 
